Assay results published in patent publication EP1362589A1, “The use of R(+)-alpha-(2,3-dimethoxyphenyl)-1-(2-(4-fluorophenyl)ethyl)-4- piperidinemethanol for the treatment of sleep disorders” (Aventis Pharmaceuticals Inc., priority 1998, dated 2000).

What was measured:
Type in all cases: in vivo
[1] = system: newborn Sprague Dawley rats; test: Depression of genioglossal EMG induced by L-Tryptophan and Pargyline
Method: (§1) Experiments were carried out on newborn Sprague Dawley rats from Iffa Credo breeding centre. The animals were anaesthetised by intraperitoneal injection of low doses of sodium pentobarbitone (7-10mg/kg), kept lying (dorsal cubitus) on a warming blanket and were spontaneously ventilating.
(§2) The EMG activity of the genioglossal muscles and the diaphragm were recorded with fine insulated wires (bipolar recordings) inserted within the muscles, filtered (100-3,000 Hz), amplified (x 5-10,000) and integrated (time constant 50 ms). The rib cage movements were recorded via a captor gently touching the lower ribs and/or the abdominal wall. The air flow changes resulting from the respiratory chest movements were recorded via a facial mask and a highly sensitive pressure recorder.
Ten to fifteen minutes after induction of anaesthesia, the animals received first an intraperitoneal injection of the COMPOUND, and a control recording was taken to define the mean amplitude of the integrated EMGs. Then, the animal received an intraperitoneal injection of L-Tryptophan plus Pargyline ("L-Trp+Parg") 10mg/kg and 50mg/kg, respectively, and the changes in EMG amplitudes were checked every 10 minutes and were expressed as % of control values.

[2] = system: newborn Sprague Dawley rats; test: Occurrence of obstructive apneas induced by L-Tryptophan and Pargyline injection
Method: Intraperitoneal application of L-Tryptophan (10mg/kg) and Pargyline (50mg/kg) to anaesthesized newborn rats depressed the amplitude of the inspiratory discharges of the genioglossal muscle and induced obstructive apneas (OA).
as §1, §2

[3] = system: healthy subjects; test: Oral doses in healthy subjects, reported drowsiness (Example 4C); conditions: for Drowsiness, % of subjects / Drowsiness, n subjects: group n=4
Method: The following data were reported. […] Only the group receiving the 72mg dose reported drowsiness ([…]).

[4] = system: healthy subjects; test: Oral doses 3-72 mg in healthy subjects, reported drowsiness (Example 4D); conditions: 72mg dose (n=4); only this group among 3, 9, 18, 36 and 72mg reported drowsiness
Method: Only the group receiving the 72mg dose reported drowsiness (n=3).

[5] = system: healthy subjects; test: Single oral dose in healthy subjects, reported sedation (Example 4A); conditions: orally
Method: Forty percent of the subjects receiving the 20mg dose (2 out of 5) and sixty percent of the subjects receiving the 10mg dose (3 out of 5) experienced mild to moderate sedation. […]

[6] = system: patients diagnosed with schizophrenia; test: Oral twice-daily dosing in patients with schizophrenia, reported insomnia and somnolence (Example 4B); conditions: orally
Method: Forty percent of the subjects receiving the 20mg dose (2 out of 5) and sixty percent of the subjects receiving the 10mg dose (3 out of 5) experienced mild to moderate sedation. […] The following data were reported.

## Cn1c(=O)c2[nH]cnc2n(C)c1=O [theophylline, reference compound]
[1]; 10mg/kg, five newborn rats
  prevention of depression of the amplitude of GG inspiratory discharges by L-Trp+Prg: not prevented
[1]; 30mg/kg, 5 animals
  prevention of depression of the amplitude of GG inspiratory discharges by L-Trp+Prg: not prevented
[2]; 10 mg/kg
  prevention of induction of OAs after L-Trp+Prg injection: not prevented
[2]; 30 mg/kg
  prevention of induction of OAs after L-Trp+Prg injection: not prevented

## COc1cccc([C@H](O)C2CCN(CCc3ccc(F)cc3)CC2)c1OC [COMPOUND, R-(+)-α-(2,3-Dimethoxyphenyl)-1-[2-(4-fluorophenyl)ethyl]-4-piperidinemethanol]
[3]; 9 mg orally
  Drowsiness, % of subjects: 50%
  Drowsiness, n subjects: 2
[3]; 18 mg orally
  Drowsiness, % of subjects: 100%
  Drowsiness, n subjects: 4
[3]; 36 mg orally
  Drowsiness, % of subjects: 100%
  Drowsiness, n subjects: 4
[3]; 72 mg and above
  drowsiness rating: moderate to severe
[3]; 72 mg orally
  Drowsiness, % of subjects: 75%
  Drowsiness, n subjects: 3
[3]; 108 mg orally
  Drowsiness, % of subjects: 100%
  Drowsiness, n subjects: 4
[3]; 138 mg orally
  Drowsiness, % of subjects: 100%
  Drowsiness, n subjects: 4
[3]; doses below 72 mg
  drowsiness rating: mild or moderate
[1]; pre-treatment 0.1 mg/kg intraperitoneal, ten animals
  prevention of the depression of genioglossal (GG) discharge induced by L-Trp+Parg: did not prevent
[1]; pre-treatment 1mg/kg intraperitoneal, ten newborn rats
  prevention of the depression of genioglossal (GG) discharge induced by L-Trp+Parg: efficient in preventing the GG depression
[1]; pre-treatment 3mg/kg intraperitoneal, ten animals
  prevention of the depression of genioglossal (GG) discharge induced by L-Trp+Parg: confirmed the efficiency
[2]; pre-treatment 0.1 mg/kg
  animals that died of respiratory distress: 4 of the 10
  newborn rats in which L-Trp+Parg injection induced OAs: 9 of 10
[2]; pre-treatment 1mg/kg
  newborn rats that did not present short lasting OAs at all: Five out of ten
  newborn rats which displayed OAs: 5 of 10
  newborn rats with long lasting OAs: one
  survival to L-Trp+Parg injection: all animals survived
[2]; pre-treatment 1mg/kg, among the 5 of 10 which displayed OAs
  animals with infrequent OAs (less than 5 short lasting OAs in 60 minutes): 2
[2]; pre-treatment 1mg/kg, between 20-40 min after the injection, mean curve
  peak frequency of occurrence of short lasting OAs: 4 OAs per 10 minute period
[2]; pre-treatment 3mg/kg
  animals that displayed long lasting OAs: None of the 10
  rats with a total of less than 3 short lasting Oas: 3 of 10
  rats with no short lasting Oas: 5 of 10
  survival: all survived
  treated rats with frequent short lasting Oas: 2 of 10
[4]
  reported drowsiness, n subjects: 3
[5]; single 10mg dose
  subjects experienced mild to moderate sedation: 3 out of 5
[5]; single 20mg dose
  subjects experienced mild to moderate sedation: 2 out of 5
[6]; 10 mg (5mg twice daily)
  Insomnia, % of subjects: N=0; 0%
  Insomnia, N (number of subjects that reported the effect): N=0; 0%
  Somnolence, % of subjects: 20%
  Somnolence, N (number of subjects that reported the effect): 3
[6]; 20 mg (10mg twice daily)
  Insomnia, % of subjects: 21.4%
  Insomnia, N (number of subjects that reported the effect): 3
  Somnolence, % of subjects: 15.4%
  Somnolence, N (number of subjects that reported the effect): N=1;
[6]; 40 mg (20mg twice daily)
  Insomnia, % of subjects: 23.1%
  Insomnia, N (number of subjects that reported the effect): 3
  Somnolence, % of subjects: 15.4%
  Somnolence, N (number of subjects that reported the effect): N=2;
